Some results are limits rather than exact numbers.

One assay deals with T1, PDK1 kinase (Homo sapiens, UniProt O15530).
T1 sequence (O15530 1-556): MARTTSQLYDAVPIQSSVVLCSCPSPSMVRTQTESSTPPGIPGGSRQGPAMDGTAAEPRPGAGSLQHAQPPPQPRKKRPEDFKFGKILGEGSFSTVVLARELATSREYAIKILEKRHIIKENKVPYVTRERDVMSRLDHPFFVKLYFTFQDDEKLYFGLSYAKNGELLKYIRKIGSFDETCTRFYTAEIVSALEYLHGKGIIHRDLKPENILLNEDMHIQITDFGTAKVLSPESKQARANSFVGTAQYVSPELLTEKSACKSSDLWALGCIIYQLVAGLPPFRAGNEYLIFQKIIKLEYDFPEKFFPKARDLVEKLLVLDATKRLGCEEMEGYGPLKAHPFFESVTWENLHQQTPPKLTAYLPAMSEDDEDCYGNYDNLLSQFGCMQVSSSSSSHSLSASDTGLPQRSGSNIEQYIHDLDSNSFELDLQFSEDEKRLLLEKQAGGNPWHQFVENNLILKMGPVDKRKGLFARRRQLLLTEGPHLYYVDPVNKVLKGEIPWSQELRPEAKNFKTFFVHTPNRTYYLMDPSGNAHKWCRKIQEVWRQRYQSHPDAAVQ
The assay can be described thus: PDK1 Kinase Alpha Screen Assay. Conditions: read-out: PDK1 IC50. The class given is biochemical. An outline of the steps: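 Biotinylated PDK1-4 peptide (50 nM) phosphorylated by PDK1 with 10 uM ATP in pH 7.5 Tris/MgCl2/DTT buffer, 2.5% DMSO, for 3-18 hours. EDTA stop, then AlphaScreen detection with phospho-(Ser/Thr) PKA substrate antibody and protein A/streptavidin beads after overnight room-temperature development.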

A further assay deals with PC-3 cells. The experiment in a line: Cell Proliferation Assay (Cell Titer Glo), PC-3 cell line. The class given is cell-based. Conditions: Homo sapiens, PC-3, PC3 cells; read-out: CPEC50 PC3. The gist of the method:
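PC-3 cells, 1000 cells/well, left to adhere 3-5 h, then exposed for 3 days at 37° C to compounds as 1:3 serial dilutions from 500× DMSO stocks diluted in growth medium. Medium then replaced with fresh medium and viability read by Cell Titer Glo luminescence.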

For the compound `NS(=O)(=O)c1ccc(Nc2ncc3cccc(-c4ccc(NCCN5CCOCC5)nc4)c3n2)cc1` [Compound 953, 4-(8-(6-(2-morpholinoethylamino)pyridin-3-yl)quinazolin-2-ylamino)benzenesulfonamide], the IC50 at PDK1 kinase was under 5 µM. Moreover, in the assay on PC-3 cells, the EC50 was under 5 µM.

On to `CCN(CC)CCNc1ccc(-c2cccc3cnc(Nc4ccc(S(N)(=O)=O)cc4)nc23)cn1` [Compound 954, 4-(8-(6-(2-(diethylamino)ethylamino)pyridin-3-yl)quinazolin-2-ylamino)benzenesulfonamide], for which the IC50 on PDK1 kinase was under 5 µM. Also, the EC50 in the assay with PC-3 cells is under 5 µM.

`CN1CCC(Nc2ccc(-c3cccc4cnc(Nc5ccc(S(N)(=O)=O)cc5)nc34)cn2)CC1` [Compound 955, 4-(8-(6-(1-methylpiperidin-4-ylamino)pyridin-3-yl)quinazolin-2-ylamino)benzenesulfonamide]: the IC50 on PDK1 kinase was under 5 µM. Further, in the assay on PC-3 cells, the EC50 is under 5 µM.

In the case of `CC(C)N1CCN(c2ccc(-c3cccc4cnc(Nc5ccc(S(N)(=O)=O)cc5)nc34)cn2)CC1` [Compound 956, 4-(8-(6-(4-isopropylpiperazin-1-yl)pyridin-3-yl)quinazolin-2-ylamino)benzenesulfonamide], the IC50 on PDK1 kinase was under 5 µM. Besides, the EC50 in the assay with PC-3 cells is under 5 µM.

Take `NS(=O)(=O)c1ccc(Nc2ncc3cccc(-c4cncc(C(=O)O)c4)c3n2)cc1` [Compound 962, 5-(2-(4-sulfamoylphenylamino)quinazolin-8-yl)nicotinic acid]: the IC50 on PDK1 kinase fell in the range of 5 to 10 µM. The EC50 with PC-3 cells is 5 to 10 µM.

Regarding `NS(=O)(=O)c1ccc(Nc2ncc3cc(C(F)(F)F)cc(-c4ccc(NCCN5CCCC5)nc4)c3n2)cc1` [Compound 963, 4-(8-(6-(2-(pyrrolidin-1-yl)ethylamino)pyridin-3-yl)-6-(trifluoromethyl)quinazolin-2-ylamino)benzenesulfonamide], the IC50 on PDK1 kinase was under 5 µM. In addition, in the assay on PC-3 cells, the EC50 is under 5 µM.

In the case of `CN1CCN(c2ccc(-c3cc(C(F)(F)F)cc4cnc(Nc5ccc(S(N)(=O)=O)cc5)nc34)cn2)CC1` [Compound 964, 4-(8-(6-(4-methylpiperazin-1-yl)pyridin-3-yl)-6-(trifluoromethyl)quinazolin-2-ylamino)benzenesulfonamide], the IC50 on PDK1 kinase lay in the range of 5 to 10 µM. For the same compound, in the assay with PC-3 cells, the EC50 is under 5 µM.

As for `NS(=O)(=O)c1ccc(Nc2ncc3cc(C(F)(F)F)cc(-c4ccc(N5CCNC(=O)C5)nc4)c3n2)cc1` [Compound 965, 4-(8-(6-(3-oxopiperazin-1-yl)pyridin-3-yl)-6-(trifluoromethyl)quinazolin-2-ylamino)benzenesulfonamide], the IC50 at PDK1 kinase was under 5 µM. Further, the EC50 with PC-3 cells is under 5 µM.

With `CC(C)NCCCNc1ccc(-c2cccc3cnc(Nc4ccc(S(N)(=O)=O)cc4)nc23)cn1` [Compound 971, 4-(8-(6-(3-(isopropylamino)propylamino)pyridin-3-yl)quinazolin-2-ylamino)benzenesulfonamide], on PDK1 kinase, the half-maximal inhibitory concentration (IC50) was under 5 µM. Besides, the EC50 with PC-3 cells was under 5 µM.

With `NS(=O)(=O)c1ccc(Nc2ncc3cccc(-c4ccc(NCCCN5CCCC5)nc4)c3n2)cc1` [Compound 972, 4-(8-(6-(3-(pyrrolidin-1-yl)propylamino)pyridin-3-yl)quinazolin-2-ylamino)benzenesulfonamide], the half-maximal inhibitory concentration (IC50) at PDK1 kinase was under 5 µM. Also, the EC50 with PC-3 cells was under 5 µM.

Turning to `CCN1CCC[C@H]1CNc1ccc(-c2cccc3cnc(Nc4ccc(S(N)(=O)=O)cc4)nc23)cn1` [Compound 973, (S)-4-(8-(6-((1-ethylpyrrolidin-2-yl)methyamino)-pyridin-3-yl)quinazolin-2-ylamino)benzenesulfonamide], at PDK1 kinase, the half-maximal inhibitory concentration (IC50) was under 5 µM. In the assay with PC-3 cells, the EC50 was under 5 µM.

In the case of `CCN1CCC[C@@H]1CNc1ccc(-c2cccc3cnc(Nc4ccc(S(N)(=O)=O)cc4)nc23)cn1` [Compound 974, (R)-4-(8-(6-((1-ethylpyrrolidin-2-yl)methylamino)pyridin-3-yl)quinazolin-2-ylamino)benzenesulfonamide], the IC50 at PDK1 kinase is under 5 µM. In addition, in the assay on PC-3 cells, the EC50 was under 5 µM.

In the case of `CN1CCC(CNc2ccc(-c3cccc4cnc(Nc5ccc(S(N)(=O)=O)cc5)nc34)cn2)CC1` [Compound 975, 4-(8-(6-((1-methylpiperidin-4-yl)methylamino)pyridin-3-yl)quinazolin-2-ylamino)benzenesulfonamide], on PDK1 kinase, the concentration for half-maximal inhibition (IC50) is under 5 µM. Also, in the assay with PC-3 cells, the EC50 was under 5 µM.

Consider `CN(C)[C@@H]1CCN(C(=O)c2cncc(-c3cccc4cnc(Nc5ccc(S(N)(=O)=O)cc5)nc34)c2)C1` [Compound 976, (R)-4-(8-(5-(3-(dimethylamino)pyrrolidine-1-carbonyl)pyridin-3-yl)quinazolin-2-ylamino)benzenesulfonamide], for which the IC50 at PDK1 kinase is under 5 µM. In the assay on PC-3 cells, the EC50 was in the range of 5 to 10 µM.

For the compound `CN1CCN(C(=O)c2cncc(-c3cccc4cnc(Nc5ccc(S(N)(=O)=O)cc5)nc34)c2)CC1` [Compound 977, 4-(8-(5-(4-methylpiperazine-1-carbonyl)pyridin-3-yl)quinazolin-2-ylamino)benzenesulfonamide], the half-maximal inhibitory concentration (IC50) on PDK1 kinase was under 5 µM. The EC50 in the assay on PC-3 cells fell in the range of 5 to 10 µM.

Turning to `CN(C)[C@H]1CCN(C(=O)c2cncc(-c3cccc4cnc(Nc5ccc(S(N)(=O)=O)cc5)nc34)c2)C1` [Compound 978, (S)-4-(8-(5-(3-(dimethylamino)pyrrolidine-1-carbonyl)pyridin-3-yl)quinazolin-2-ylamino)benzenesulfonamide], the IC50 on PDK1 kinase is under 5 µM. For the same compound, the EC50 in the assay on PC-3 cells was in the range of 5 to 10 µM.

For the compound `NS(=O)(=O)c1ccc(Nc2ncc3cccc(-c4cncc(C(=O)NCCN5CCCC5)c4)c3n2)cc1` [Compound 979, N-(2-(pyrrolidin-1-yl)ethyl)-5-(2-(4-sulfamoylphenylamino)quinazolin-8-yl)nicotinamide], the IC50 on PDK1 kinase was under 5 µM. The EC50 with PC-3 cells is 5 to 10 µM.

In the case of `CN(C)C1CCN(C(=O)c2cncc(-c3cccc4cnc(Nc5ccc(S(N)(=O)=O)cc5)nc34)c2)CC1` [Compound 980, 4-(8-(5-(4-(dimethylamino)piperidine-1-carbonyl)pyridin-3-yl)quinazolin-2-ylamino)benzenesulfonamide], the IC50 on PDK1 kinase is under 5 µM. The EC50 with PC-3 cells was 5 to 10 µM.

On to `CN1CCC(NC(=O)c2cncc(-c3cccc4cnc(Nc5ccc(S(N)(=O)=O)cc5)nc34)c2)CC1` [Compound 981, N-(1-methylpiperidin-4-yl)-5-(2-(4-sulfamoylphenylamino)quinazolin-8-yl)nicotinamide], for which the IC50 at PDK1 kinase was under 5 µM. In the assay with PC-3 cells, the EC50 is 5 to 10 µM.

As to `CN1CCC(CNC(=O)c2cncc(-c3cccc4cnc(Nc5ccc(S(N)(=O)=O)cc5)nc34)c2)CC1` [Compound 982, N-((1-methylpiperidin-4-yl)methyl)-5-(2-(4-sulfamoylphenylamino)quinazolin-8-yl)nicotinamide], on PDK1 kinase, the IC50 was under 5 µM. In addition, the EC50 in the assay with PC-3 cells lay within 5 to 10 µM.

In the case of `NS(=O)(=O)c1ccc(Nc2ncc3cccc(-c4cncc(C(=O)N5CCNC(=O)C5)c4)c3n2)cc1` [Compound 983, 4-(8-(5-(3-oxopiperazine-1-carbonyl)pyridin-3-yl)quinazolin-2-ylamino)benzenesulfonamide], on PDK1 kinase, the IC50 is under 5 µM. Besides, the EC50 with PC-3 cells lay within 5 to 10 µM.

Turning to `NS(=O)(=O)c1ccc(Nc2ncc3cccc(-c4cncc(C(=O)N5CCOCC5)c4)c3n2)cc1` [Compound 984, 4-(8-(5-(morpholine-4-carbonyl)pyridin-3-yl)quinazolin-2-ylamino)benzenesulfonamide], the IC50 at PDK1 kinase was under 5 µM. In addition, in the assay with PC-3 cells, the EC50 fell in the range of 5 to 10 µM.

With `CN1CCN(c2ccc(-c3cccc4cnc(Nc5ccc(S(N)(=O)=O)cc5)nc34)cc2)CC1` [Compound 985, 4-(8-(4-(4-methylpiperazin-1-yl)phenyl)quinazolin-2-ylamino)benzenesulfonamide], at PDK1 kinase, the IC50 is under 5 µM. Further, in the assay with PC-3 cells, the EC50 is under 5 µM.

On to `NS(=O)(=O)c1ccc(Nc2ncc3cccc(-c4ccc(CN5CCOCC5)cc4)c3n2)cc1` [Compound 986, 4-(8-(4-(mopholinomethyl)phenyl)quinazolin-2-ylamino)benzenesulfonamide], for which, at PDK1 kinase, the IC50 was under 5 µM. For the same compound, the EC50 in the assay with PC-3 cells is under 5 µM.

`NS(=O)(=O)c1ccc(Nc2ncc3cccc(C4=CCNCC4)c3n2)cc1` [Compound 987, 4-(8-(1.2,3,6-tetrahydropyridin-4-yl)quinazolin-2-ylamino)benzenesulfonamide]: at PDK1 kinase, the IC50 is under 5 µM. In addition, the EC50 in the assay with PC-3 cells was under 5 µM.

In the case of `CC(C)NC(=O)c1ccc(Nc2ncc3cccc(-c4ccc(NCCN5CCCC5)nc4)c3n2)cc1` [Compound 993, N-isopropyl-4-(8-(6-(2-(pyrrolidin-1-yl)ethylamino)pyridin-3-yl)quinazolin-2-ylamino)benzamide], the IC50 on PDK1 kinase was under 5 µM. Further, the EC50 in the assay on PC-3 cells is under 5 µM.

In the case of `Fc1ccc(Nc2ncc3cccc(-c4ccc(NCCN5CCCC5)nc4)c3n2)cc1` [Compound 994, N-(4-fluorophenyl)-8-(6-(2-(pyrrolidin-1-yl)ethylamino)pyridin-3-yl)quinazolin-2-amine], the IC50 on PDK1 kinase is under 5 µM. The EC50 in the assay on PC-3 cells is under 5 µM.

The values above are taken from patent US7932262B2 (Novartis AG, priority 2006, dated 2011).
